Results on two compounds are retold here after PMC12395807, “Chemoreceptor family in plant-associated bacteria responds preferentially to the plant signal molecule glycerol 3-phosphate” (Genome Biology, 2025).

The target in assay [1] is ligand binding domain of the chemoreceptor ECA_RS12390 (PacP-LBD, R1, WP_011094075.1) (Pectobacterium atrosepticum, UniProt Q6D464). As to the kind of experiment: ITC binding to PacP-LBD. The note with it: 15 °C, Nb = no binding. How it is done:
(§1) Plasmids for the overexpression of the different proteins were transformed into E. coli BL21(DE3). The resulting strains were grown under continuous stirring (200 rpm) at 30 °C in 2-L Erlenmeyer flasks containing 500 mL of LB medium supplemented with 50 μg/mL kanamycin. At an OD660 of 0.5, protein expression was induced by the addition of 0.1 mM isopropyl β-D-1-thiogalactopyranoside. Growth was continued at 16 °C overnight prior to cell harvesting by centrifugation at 10,000 × g for 20 min. Cell pellets were resuspended in buffer A (Additional file 2: Table S4) and subsequently broken by French press treatment at 62.5 lb/in^2. After centrifugation at 20,000 × g for 30 min, the supernatants were loaded onto 5-mL HisTrap HP columns (Amersham Biosciences) equilibrated with buffer A, and the proteins were eluted with a linear gradient of buffer B (Additional file 2: Table S4). All proteins contain a hexa-histidine tag at the N-terminal extension (Additional file 2: Table S3) and were purified at 4 °C. The purified proteins were dialyzed overnight into the corresponding analysis buffers (Additional file 2: Table S4) for immediate analysis.
(§2) All experiments were conducted on a VP microcalorimeter (Microcal, MA) at 15 °C for PacP-LBD and at 20 °C for the remaining proteins. Proteins were dialyzed into the analysis buffers specified in Additional file 2: Table S4, placed into the sample cell and titrated with aliquots of ligand solutions (1 to 10 mM) freshly prepared in dialysis buffer. The mean enthalpies measured from the injection of the ligands into the analysis buffer were subtracted from the raw titration data prior to data analysis with the MicroCal version of ORIGIN. The data were fitted with the “One binding site model” of ORIGIN.

The target in assay [2] is LBD of chemoreceptor R3 (WP_006464688.1) (Herbaspirillum frisingense, UniProt A0ABU1PC34). As to the kind of experiment: ITC binding to R3-LBD. The note with it: 20 °C, Nb = no binding. How it is done: as §1, §2
Sequence of LBD of chemoreceptor R3 (WP_006464688.1) (A0ABU1PC34 entry or part of it): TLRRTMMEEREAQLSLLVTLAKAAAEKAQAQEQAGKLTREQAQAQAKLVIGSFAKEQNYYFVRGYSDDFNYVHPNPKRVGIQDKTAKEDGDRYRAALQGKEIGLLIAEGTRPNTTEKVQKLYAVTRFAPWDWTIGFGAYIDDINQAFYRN
The target of assay [3] is LBD of chemoreceptor R4 (WP_158281851.1) (Rivihabitans pingtungensis, UniProt A0A318KJN4). As to the kind of experiment: ITC binding to R4-LBD. Details: species or system Rivicola pingtungensis. The note with it: 20 °C, Nb = no binding. How it is done: as §1, §2
Sequence of LBD of chemoreceptor R4 (WP_158281851.1) (A0A318KJN4 entry or part of it): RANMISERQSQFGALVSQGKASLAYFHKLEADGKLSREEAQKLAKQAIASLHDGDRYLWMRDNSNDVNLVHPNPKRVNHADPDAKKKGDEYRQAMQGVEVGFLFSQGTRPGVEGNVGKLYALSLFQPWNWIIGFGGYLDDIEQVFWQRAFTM
Assay [4] concerns the target LBD of chemoreceptor R5 (WP_028444678.1). As to the kind of experiment: ITC binding to R5-LBD. Details: species or system Chitinimonas koreensis. The note with it: 20 °C, Nb = no binding. How it is done: as §1, §2
In assay [5] the target is LBD of chemoreceptor R6 (WP_174062248.1). In words: ITC binding to R6-LBD. On the set-up: species or system Agrobacterium larrymoorei. The note with it: 20 °C, Nb = no binding. How it is done:
as §1, §2

The nature of assay [6]: ITC binding to R7-LBD. On the set-up: species or system Methyloversatilis discipulorum. The note with it: 20 °C, Nb = no binding. How it is done: as §1, §2
Assay [7] has as its target LBD of chemoreceptor R9 (WP_189529961.1) (Paludibacterium paludis, UniProt A0A918NWY2). As to the kind of experiment: ITC binding to R9-LBD. The note with it: 20 °C, Nb = no binding. Here is the method: as §1, §2
In assay [8] the target is LBD of chemoreceptor R10 (WP_028866120.1). As to the kind of experiment: ITC binding to R10-LBD. On the set-up: species or system Psychromonas aquimarina. The note with it: 20 °C, Nb = no binding. How it is done:
as §1, §2

Assay [9] has as its system PacP-LBD mutant (Y86, H100, R105, Y121, K148 and Y167 replaced by alanine). In words: ITC binding to PacP-LBD binding site motif mutant. On the set-up: species or system Pectobacterium atrosepticum. The note with it: 36 μM PacP-LBD alanine mutant; 1 mM glycerol 3-phosphate, 2.5 mM glyceraldehyde 3-phosphate. How it is done:
as §1, with “The purified proteins were dialyzed overnight into the corresponding analysis buffers (Additional file 2: Table S4) for immediate analysis.” left out
All experiments were conducted on a VP microcalorimeter (Microcal, MA) at 15 °C for PacP-LBD and at 20 °C for the remaining proteins. […] The mean enthalpies measured from the injection of the ligands into the analysis buffer were subtracted from the raw titration data prior to data analysis with the MicroCal version of ORIGIN. […]

The subject of assay [10] is P. atrosepticum SCRI1043. As to the kind of experiment: Quantitative capillary chemotaxis assay, wild type. The note with it: wild type SCRI1043, 1 mM ligand, 30 min. It is filed as cell-based, Pectobacterium atrosepticum. Here is the method:
(§3) Overnight cultures of P. atrosepticum SCRI1043 were grown at 30 °C in minimal medium. At an OD660 of 0.4–0.45, the cultures were washed twice with chemotaxis buffer (50 mM K2HPO4/KH2PO4, 20 μM EDTA, 0.05% (v/v) glycerol, pH 7.0) and diluted to an OD660 of 0.1 in the same buffer. Subsequently, 230 μL of the resulting bacterial suspension was placed into the wells of 96-well plates. One-microliter capillary tubes (P1424, Microcaps; Drummond Scientific) were heat-sealed at one end and filled with either chemotaxis buffer (negative control) or chemotaxis buffer containing PacP ligands at a concentration of 1 mM. The capillaries were immersed in the bacterial suspensions at their open ends. After 30 min at room temperature, the capillaries were removed from the bacterial suspensions, rinsed with sterile water, and the contents were expelled into 1 mL of 40 mM K2HPO4, 15 mM KH2PO4. Serial dilutions were plated onto minimal medium supplemented with 15 mM glucose as the carbon source. The number of colony-forming units was determined after 36 h of incubation at 30 °C. In all the cases, the data were corrected with the number of cells that swam into the buffer-containing capillaries.

The subject of assay [11] is P. atrosepticum SCRI1043 pacP mutant (MpacP). As to the kind of experiment: Quantitative capillary chemotaxis assay, pacP mutant. The note with it: 1 mM ligand. Type of assay: cell-based, Pectobacterium atrosepticum.
Excerpt: A mutant defective in ECA_RS12390 was constructed by homologous recombination using a derivative plasmid of the suicide vector pKNG101. Briefly, a 0.5-kb fragment corresponding to the region encoding the LBD of ECA_RS12390 was amplified by the primers specified in Additional file 2: Table S2 and cloned into pGEM®-T. The resulting plasmid pGEM::ECA_RS12390 was digested with XmaI, and the 0.5-kb insert was cloned into the same site at pKNG101 to generate pKNG101::ECA_RS12390. This plasmid was subsequently transformed into P. atrosepticum SRCI1043 via biparental conjugation using E. coli β2163. All the plasmids were verified by PCR and sequencing. The pETb(+) derivatives encoding the LBD of the different receptors analyzed in this study (Table 1) were purchased from GeneScript. Plasmid pBBR-ECA_RS12390 was constructed by amplifying the pacP gene using the primers detailed in Additional file 2: Table S2 and cloning of the PCR product into the NdeI/BamHI sites of pBBR1MCS2_START. The sequences of the proteins analyzed in this study are provided in Additional file 2: Table S3. The ECA_RS12390 nucleotide sequence is available in the published genome of P. atrosepticum SCRI1043 [60].
as §3

The test system of assay [12] is Pectobacterium atrosepticum SCRI1043. In words: Growth experiment, sole carbon source. It is filed as cell-based. The note with it: PFM9 minimal medium, 5 mM ligand, 30 °C, 48 h. How it is done:
(§4) P. atrosepticum SCRI1043 was cultured overnight in phosphate-free M9-based medium (PFM9) supplemented with 20 mM glucose as the carbon source and 500 µM inorganic phosphate as the phosphate source. Cultures were washed and then diluted to an OD600 of 0.02 in PFM9 supplemented with different PacP ligands as the sole carbon or phosphorous source at a final concentration of 5 mM. Subsequently, 200 µL aliquots of these cultures were transferred into microwell plates, which were subsequently grown at 30 °C on a Bioscreen microbiological growth analyzer (Oy Growth Curves Ab Ltd., Helsinki, Finland) for 48 h.

For assay [13] the test system is unchanged. As to the kind of experiment: Growth experiment, sole phosphorus source. Type of assay: cell-based. The note with it: PFM9 minimal medium, 5 mM ligand, 30 °C, 48 h. Here is the method:
as §4

Assay [14] deals with Bdellovibrio bacteriovorus. Details: method as in PMID 119030, PMID 500565. The note with it: cited from earlier work.
Assay [15] relates to Bacillus subtilis. On the set-up: method as in PMID 119030, PMID 500565. The note with it: cited from earlier work.

SMILES strings stand for the structures.

Sequence of LBD of chemoreceptor R9 (WP_189529961.1) (A0A918NWY2 entry or part of it): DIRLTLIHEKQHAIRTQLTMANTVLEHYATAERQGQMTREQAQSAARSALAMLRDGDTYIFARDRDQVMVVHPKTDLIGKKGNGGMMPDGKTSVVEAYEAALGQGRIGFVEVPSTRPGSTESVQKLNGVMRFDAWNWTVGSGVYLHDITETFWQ
Sequence of ligand binding domain of the chemoreceptor ECA_RS12390 (PacP-LBD, R1, WP_011094075.1) (Q6D464 entry or part of it): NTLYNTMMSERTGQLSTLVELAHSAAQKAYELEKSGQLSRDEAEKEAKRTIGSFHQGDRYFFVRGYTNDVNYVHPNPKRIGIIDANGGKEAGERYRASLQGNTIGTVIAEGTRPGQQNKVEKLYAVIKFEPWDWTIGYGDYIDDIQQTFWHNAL

What is called Kd is the equilibrium constant for the complex coming apart. The low end stands for a tighter complex, the high end for a looser complex. `O=CC(O)COP(=O)(O)O` (stereo not drawn) [glyceraldehyde 3-phosphate]: the Kd in assay [1] came out at 58 ± 2 µM; in [3] it was 100 ± 2 µM; in assay [6] it was 126 ± 9 µM. Moreover, the KD entry in assay [2], in assay [4], in assay [5], in assay [7] and in [8] was “Nb” each time. Besides, the “binding in microcalorimetric titration” value in assay [9] was “absence of binding”. The “chemotaxis (capillary assay)” value in assay [10] is reported as “Modest chemoattraction”; in [11], “Only glycerol 2-phosphate served as an attractant for the mutant”. The “growth as sole carbon source” value in assay [12] is recorded as “devoid of apparent metabolic value”. For the same compound, the “growth as sole phosphorus source” value in [13] is given as “devoid of apparent metabolic value”.
`O=P(O)(O)OC(CO)CO` [glycerol 2-phosphate]: the Kd in [1] came out at 72 ± 2 µM; in assay [2] it was 36 ± 2 µM; in [3] it was 60 ± 2 µM; in [6] it was 223 ± 45 µM. The KD entry in assay [2] was “bound”; in [4], “Nb”; in assay [5], “Nb”; in assay [7], “Nb”; in assay [8] it was “Nb”. In addition, the entries for the “chemotaxis (capillary assay)” value in [10] and in [11] were “Modest chemoattraction” and “served as an attractant”, respectively. Further, the “growth as sole phosphorus source” value in assay [13] is “permitted growth”. The chemotaxis result in [14] and in assay [15] was “weak chemotaxis” each time.
